Assay results taken from patent US20260209215A1, “GLYCINE DERIVATIVES WITH P2X4 RECEPTOR-BLOCKING ACTIVITY AS DIAGNOSTICS AND FOR THE TREATMENT OF PAIN, INFLAMMATION, CANCER, AND OTHER P2X4 RECEPTOR-RELATED DISEASES” (RHEINISCHE-FRIEDRICH-WILHELMS-UNIVERSITÄT BONN, priority 2022, published 2026).

Molecular target: T1, P2X4 receptor (Homo sapiens, UniProt Q99571)
T1 construct: expressed in transfected cells; host or cells: 1321N1 astrocytoma cells, retroviral vector pQCXIN, G418 selection, monoclones
T1 sequence (Q99571 1-388): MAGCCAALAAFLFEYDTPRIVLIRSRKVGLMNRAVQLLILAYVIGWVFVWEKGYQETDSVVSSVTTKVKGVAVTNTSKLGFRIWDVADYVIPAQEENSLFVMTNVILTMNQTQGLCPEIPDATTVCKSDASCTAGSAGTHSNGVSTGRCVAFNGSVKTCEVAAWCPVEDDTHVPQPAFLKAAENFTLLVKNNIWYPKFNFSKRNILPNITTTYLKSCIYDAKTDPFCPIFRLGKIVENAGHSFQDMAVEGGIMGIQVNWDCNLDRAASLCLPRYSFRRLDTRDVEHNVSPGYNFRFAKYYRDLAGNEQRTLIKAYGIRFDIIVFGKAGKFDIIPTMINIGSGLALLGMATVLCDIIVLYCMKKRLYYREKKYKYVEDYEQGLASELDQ
Test: Measurement of Ca2+ influx in transfected 1321N1 astrocytoma cells (P2X4 inhibitory potency)
Format: cell-based
Details: agonist-mediated Ca2+ influx, FLUO-4, 1321N1 astrocytoma cells; antagonists added 30 min before agonist
Procedure, shortened: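 Stable 1321N1 astrocytoma cells expressing human P2X4, loaded with FLUO-4 AM (2.4 μM) in HBSS/HEPES pH 7.3 for 1 h at 23 °C. Antagonists added 30 min before agonist; fluorescence at 520 nm recorded for 30 s. Compounds tested at 7–8 concentrations spanning three log units.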

Structure (SMILES) | IC50 [nM]
CCc1noc(-c2ccc(OC)c(NCC(=O)c3c[nH]c4cc(OC)c(F)cc34)c2)n1 [Example 97, 2-((5-(3-ethyl-1,2,4-oxadiazol-5-yl)-2-methoxyphenyl)amino)-1-(5-fluoro-6-methoxy-1H-indol-3-yl) ethan-1-one] | 0.1 to 19
CCc1noc(-c2ccc(OC)c(NCC(=O)c3cn(C)c4cc(OC)c(F)cc34)c2)n1 [Example 98, 2-((5-(3-ethyl-1,2,4-oxadiazol-5-yl)-2-methoxyphenyl)amino)-1-(5-fluoro-6-methoxy-1-methyl-1H-indol-3-yl) ethan-1-one] | 0.1 to 19
Cc1nsc(-c2ccc(C)c(NCC(=O)c3cn4c5c(cccc35)C(=O)NCC4)c2)n1 [Example 99, 7-((2-methyl-5-(3-methyl-1,2,4-thiadiazol-5-yl)phenyl)glycyl)-3,4-dihydro-[1,4]diazepino[6,7,1-hi] indol-1(2H)-one] | 20 to 39
Cc1nsc(-c2ccc(C)c(NCC(=O)c3c[nH]c4ncccc34)c2)n1 [Example 100, 2-((2-methyl-5-(3-methyl-1,2,4-thiadiazol-5-yl)phenyl)amino)-1-(1H-pyrrolo [2,3-b]pyridin-3-yl) ethan-1-one] | 20 to 39
COc1cc2[nH]cc(C(=O)CNc3cc(-c4nc(C)ns4)cc(F)c3OC)c2cc1F [Example 101, 2-((3-fluoro-2-methoxy-5-(3-methyl-1,2,4-thiadiazol-5-yl)phenyl)amino)-1-(5-fluoro-6-methoxy-1H-indol-3-yl)ethan-1-one] | 20 to 39
Cc1nsc(-c2ccc(C)c(NCC(=O)c3c[nH]c4ccccc34)c2)n1 [Example 102, 1-(1H-indol-3-yl)-2-((2-methyl-5-(3-methyl-1,2,4-thiadiazol-5-yl)phenyl)amino)ethan-1-one] | 20 to 39
Cc1nsc(-c2ccc(C)c(NCC(=O)c3cn4c5c(cccc35)CCC4)c2)n1 [Example 103, 1-(5,6-dihydro-4H-pyrrolo[3,2,1-ij]quinolin-1-yl)-2-((2-methyl-5-(3-methyl-1,2,4-thiadiazol-5-yl)phenyl)amino)ethan-1-one] | 20 to 39
COc1ccc(-c2nc(C)ns2)cc1NCC(=O)c1c[nH]c2c3c(ccc12)CCC3 [Example 104, 2-((2-methoxy-5-(3-methyl-1,2,4-thiadiazol-5-yl)phenyl)amino)-1-(1,6,7,8-tetrahydrocyclopenta[g]indol-3-yl)ethan-1-one] | 20 to 39
Cc1nsc(-c2ccc(C)c(NCC(=O)c3cn4c5c(cccc35)OCC(C)(O)C4)c2)n1 (stereo not shown) [Example 105, 1-(3-hydroxy-3-methyl-3,4-dihydro-2H-[1,4]oxazepino[2,3,4-hi]indol-7-yl)-2-((2-methyl-5-(3-methyl-1,2,4-thiadiazol-5-yl)phenyl)-amino)ethan-1-one] | 20 to 39
Cc1nc(-c2ccc(C)c(NCC(=O)c3c[nH]c4ccccc34)c2)no1 [Example 106, 1-(1H-indol-3-yl)-2-((2-methyl-5-(5-methyl-1,2,4-oxadiazol-3-yl)phenyl)amino)ethan-1-one] | 40 to 69
CCc1noc(-c2cc(NCC(=O)c3c[nH]c4cc(OC)c(Br)cc34)c(OC)cc2Br)n1 [Example 108, 2-(4-bromo-5-(3-ethyl-1,2,4-oxadiazol-5-yl)-2-methoxyphenylamino)-1-(5-bromo-6-methoxy-1H-indol-3-yl) ethanone] | 70 to 99

Other lines, results leading:

IC50 [nM] | Structure (SMILES)
40 to 69 | CCc1noc(-c2cc(NCC(=O)c3c[nH]c4cc(OC)ccc34)c(OC)cc2Br)n1 [Example 109, 2-((4-bromo-5-(3-ethyl-1,2,4-oxadiazol-5-yl)-2-methoxy-phenyl)amino)-1-(6-methoxy-1H-indol-3-yl)ethan-1-one]
20 to 39 | COc1nccc2c(C(=O)CNc3cc(-c4nc(C)ns4)ccc3C)c[nH]c12 [Example 110, 1-(7-methoxy-1H-pyrrolo[2,3-c]pyridin-3-yl)-2-((2-methyl-5-(3-methyl-1,2,4-thiadiazol-5-yl)phenyl)amino) ethan-1-one]
40 to 69 | CCc1noc(-c2ccc(C)c(NCC(=O)c3cn(C)c4ccccc34)c2)n1 [Example 111, 2-((5-(3-ethyl-1,2,4-oxadiazol-5-yl)-2-methylphenyl)amino)-1-(1-methyl-1H-indol-3-yl)ethan-1-one]
0.1 to 19 | Cc1nsc(-c2ccc(C)c(NCC(=O)c3c[nH]c4c(C(C)O)cccc34)c2)n1 (stereo not shown) [Example 112, 1-(7-(1-hydroxyethyl)-1H-indol-3-yl)-2-((2-methyl-5-(3-methyl-1,2,4-thiadiazol-5-yl)phenyl)amino)ethan-1-one]
40 to 69 | Cc1ccc(-c2ccc(C(C)C)cn2)cc1NCC(=O)N1CCc2c(OCCOCCO)cccc21 [Example 113, 1-(4-(2-(2-hydroxyethoxy)ethoxy)indolin-1-yl)-2-((5-(5-isopropylpyridin-2-yl)-2-methylphenyl)amino) ethan-1-one]
40 to 69 | Cc1ccc(-c2ccc(C3CC3)cn2)cc1NCC(=O)N1CCc2c(OCC(C)(C)O)cccc21 [Example 114, 2-((5-(5-cyclopropyl-pyridin-2-yl)-2-methyl-phenyl)amino)-1-(4-(2-hydroxy-2-methyl-propoxy)indolin-1-yl) ethan-1-one]
40 to 69 | Cc1ccc(-c2ccc(Cl)cn2)cc1NCC(=O)N1CCc2c(OCC(C)(C)O)cccc21 [Example 115, 2-((5-(5-chloropyridin-2-yl)-2-methylphenyl)amino)-1-(4-(2-hydroxy-2-methyl-propoxy)-indolin-1-yl)ethan-1-one]
70 to 99 | Cc1ccc(-c2ccc(C)c(NCC(=O)N3CCc4c(CO)cccc43)c2)nc1 [Example 116, 1-(4-(hydroxymethyl)indolin-1-yl)-2-((2-methyl-5-(5-methylpyridin-2-yl)phenyl)amino)ethan-1-one]
40 to 69 | Cc1ccc(-c2ccc(C)c(NCC(=O)N3CCc4c(OCC(C)(C)O)cccc43)c2)nc1 [Example 117, 1-(4-(2-hydroxy-2-methylpropoxy)indolin-1-yl)-2-((2-methyl-5-(5-methylpyridin-2-yl)phenyl)amino)ethan-1-one]
40 to 69 | COc1ccc(-c2ccc(C)cn2)cc1NCC(=O)N1CCc2cc(F)c(F)cc21 [Example 118, 1-(5,6-difluoroindolin-1-yl)-2-((2-methoxy-5-(5-methylpyridin-2-yl)phenyl)amino)ethan-1-one]
70 to 99 | COC(=O)c1cccc2c1CCN2C(=O)CNc1cc(-c2ccc(C)cn2)ccc1OC [Example 119, methyl 1-((2-methoxy-5-(5-methylpyridin-2-yl)phenyl)glycyl) indoline-4-carboxylate]
40 to 69 | COc1ccc(-c2ccc(C)cn2)cc1NCC(=O)N1CCc2c(OC)cccc21 [Example 120, 2-((2-methoxy-5-(5-methyl-pyridin-2-yl)phenyl)amino)-1-(4-methoxyindolin-1-yl) ethan-1-one]
> 100 | COc1ccc(-c2cc(C)c(C)cn2)cc1NCC(=O)N1CCc2c(O)cccc21 [Example 121, 2-((5-(4,5-dimethyl-pyridin-2-yl)-2-methoxyphenyl)amino)-1-(4-hydroxyindolin-1-yl) ethan-1-one]
> 100 | O=C(CNc1cccc(-c2ccccn2)c1)c1c[nH]c2cc(F)c(F)cc12 [Example 122, 1-(5,6-difluoro-1H-indol-3-yl)-2-((3-(pyridin-2-yl)phenyl)amino)ethan-1-one]
